The NIST ThermoML archive (doi:10.1021/acs.jced.8b00213)

Tests used:
[1] = refractive index (Na D-line) (dimensionless); xn = mol fraction of the nth substance listed; details: 100 kPa, Liquid, Standard Abbe refractometry, x1 = 0.25
[2] = xn = mol fraction of the nth substance listed; details: 100 kPa, Liquid, x1 = 0.25; for electrical conductivity: Alternating current cell with electrodes; for viscosity: Falling or rolling sphere viscometry; for speed of sound: Single path-length method; for mass density: Vibrating tube method

CCCC[N+](CCCC)(CCCC)Cc1ccccc1.[Cl-] [benzyltributylammonium chloride] + OCCOCCOCCO
Details | electrical conductivity, [2] [S/m] | mass density, [2] [kg/m3] | refractive index, [1] | speed of sound, [2] [m/s] | viscosity, [2] [mPa·s]
283.15 K | 0.013 | 1077.97 | 1.4936 | 1710.1 | 738.7
288.15 K | 0.017 | 1074.64 | 1.4921 | 1692.4 | 506
293.15 K | 0.021 | 1071.36 | 1.4906 | 1675.8 | 356.9
298.15 K | 0.027 | 1068.09 | 1.4889 | 1659.8 | 256.5
303.15 K | 0.035 | 1064.81 | 1.4874 | 1644.2 | 188.5
308.15 K | 0.043 | 1061.53 | 1.4857 | 1629.2 | 142.4
313.15 K | 0.054 | 1058.25 | 1.4842 | 1614.3 | 109.1
318.15 K | 0.067 | 1054.97 | 1.4827 | 1599.8 | 85.2
323.15 K | 0.082 | 1051.7 | 1.4811 | 1585.4 | 67.7
328.15 K | 0.098 | 1048.43 | 1.4795 | 1571.2 | 54.4
333.15 K | 0.114 | 1045.18 | 1.4779 | 1557.1 | 43.3
338.15 K | 0.145 | 1041.92 | 1.4764 | 1543.3 | 34.9
343.15 K | 0.174 | 1038.69 | 1.4748 | 1530 | 28.3
